In US9102670B2, “Pyrido-, pyrazo- and pyrimido-pyrimidine derivatives as mTOR inhibitors” (KuDOS Pharmaceuticals Limited, priority 2006, dated 2015):

Each molecule was assayed on phosphorylation of Serine 473 in Akt (assay: In Vitro Phospho-Ser473 Akt Assay in MDA-MB-468 cells). Conditions: Homo sapiens, MDA-MB-468, read-out: IC50 values against mTOR, phospho-Ser473 Akt assay, MDA-MB-468 cells.
Format: cell-based
In the case of COc1ccc(-c2ccc3c(N4CCOC[C@@H]4C)nc(Nc4ccccn4)nc3n2)cc1CO [Example 18p], the IC50 is reported as under 300 nM.
In the case of COc1ccc(-c2ccc3c(N4CCOC[C@@H]4C)nc(N4CCCC4)nc3n2)cc1CO [Example 18q], the IC50 is reported as under 100 nM.
In the case of CCOC(=O)C1CCCN(c2nc(N3CCOC[C@@H]3C)c3ccc(-c4ccc(OC)c(CO)c4)nc3n2)C1 (some centres unmarked) [Example 18r], the IC50 is reported as under 100 nM.
With COc1ccc(-c2ccc3c(N4CCOC[C@@H]4C)nc(N4CCC(CN)CC4)nc3n2)cc1CO [Example 18s] the IC50 was under 100 nM.
Molecule COc1ccc(-c2ccc3c(N4CCOC[C@@H]4C)nc(N4CCC(C)CC4)nc3n2)cc1CO [Example 18t] has an IC50 of under 100 nM.
In the case of CCOC(=O)C1CCN(c2nc(N3CCOC[C@@H]3C)c3ccc(-c4ccc(OC)c(CO)c4)nc3n2)CC1 [Example 18u], the IC50 is reported as under 100 nM.
Work on COc1ccc(-c2ccc3c(N4CCOC[C@@H]4C)nc(N4CCC(C(N)=O)CC4)nc3n2)cc1CO [Example 18v] yielded an IC50 of under 100 nM.
COc1ccc(C(=O)C2CCN(c3nc(N4CCOC[C@@H]4C)c4ccc(-c5ccc(OC)c(CO)c5)nc4n3)CC2)cc1 [Example 18w] gave an IC50 of under 300 nM.
COc1ccc(-c2ccc3c(N4CCOC[C@@H]4C)nc(N4CCC(CO)CC4)nc3n2)cc1CO [Example 18x] was tested, and the IC50 was under 100 nM.
COc1ccc(-c2ccc3c(N4CCOC[C@@H]4C)nc(N4CCCC(CO)C4)nc3n2)cc1CO (some centres unmarked) [Example 18y] gave an IC50 of under 100 nM.
Molecule COc1ccc(-c2ccc3c(N4CCOC[C@@H]4C)nc(-c4cccc(C=O)c4)nc3n2)cc1CO [Example 19b] has an IC50 of under 300 nM.
COc1ccc(-c2ccc3c(N4CCOC[C@@H]4C)nc(-c4cccc(CO)c4)nc3n2)cc1CO [Example 19c] showed an IC50 of under 300 nM.
In the case of COc1ccc(-c2ccc3c(N4CCOC[C@@H]4C)nc(-c4cccnc4)nc3n2)cc1CO [Example 19j], the IC50 is reported as under 100 nM.
COc1ccc(-c2ccc3c(N4CCOC[C@@H]4C)nc(-c4cccc(C(N)=O)c4)nc3n2)cc1CO [Example 19k] showed an IC50 of under 300 nM.
COc1ccc(-c2nc(N3CCOC[C@@H]3C)c3ccc(-c4cccc(CO)c4)nc3n2)cn1 [Example 19p] gave an IC50 of under 100 nM.

Same assay, conditions: Homo sapiens, MDA-MB-468, read-out: IC50 values against mTOR, phospho-Ser473 Akt assay, MDA-MB-468 cells, upper bound
Molecule COc1ccc(-c2ccc3c(N4CCOC[C@@H]4C)nc(Nc4cccnc4)nc3n2)cc1CO [Example 18o] has an IC50 of under 1000 nM.
COc1ccc(-c2ccc3c(N4CCOC[C@@H]4C)nc(N4CCC(N5CCCCC5)CC4)nc3n2)cc1CO [Example 18z] gave an IC50 of under 1000 nM.
With COc1ccc(-c2ccc3c(N4CCOC[C@@H]4C)nc(-c4cccc(CN)c4)nc3n2)cc1CO [Example 19e] the IC50 was under 1000 nM.
In the case of COC(=O)c1cccc(-c2nc(N3CCOC[C@@H]3C)c3ccc(-c4ccc(OC)c(CO)c4)nc3n2)c1 [Example 19h], the IC50 is reported as under 1000 nM.
For COc1ccc(-c2ccc3c(N4CCOC[C@@H]4C)nc(-c4cccc([N+](=O)[O-])c4)nc3n2)cc1CO [Example 19i], the IC50 was under 1000 nM.
COCc1cccc(-c2nc(N3CCOC[C@@H]3C)c3ccc(-c4ccc(OC)c(CO)c4)nc3n2)c1 [Example 19l] showed an IC50 of under 1000 nM.
With COc1ccc(-c2ccc3c(N4CCOC[C@@H]4C)nc(-c4cccc(C(F)(F)F)c4)nc3n2)cc1CO [Example 19m] the IC50 was under 1000 nM.
With COc1ccc(-c2ccc3c(N4CCOC[C@@H]4C)nc(-c4cccc(C)c4)nc3n2)cc1CO [Example 19n] the IC50 was under 1000 nM.
COc1cccc(-c2nc(N3CCOC[C@@H]3C)c3ccc(-c4ccc(OC)c(CO)c4)nc3n2)c1 [Example 19o] was tested, and the IC50 was under 1000 nM.
With C[C@H]1COCCN1c1nc(-c2ccncc2)nc2nc(-c3cccc(CO)c3)ccc12 [Example 19q] the IC50 was under 1000 nM.
Work on COc1cncc(-c2nc(N3CCOC[C@@H]3C)c3ccc(-c4cccc(CO)c4)nc3n2)c1 [Example 19s] yielded an IC50 of under 1000 nM.
With C[C@H]1COCCN1c1nc(-c2cccnc2F)nc2nc(-c3cccc(CO)c3)ccc12 [Example 19u] the IC50 was under 1000 nM.
C[C@H]1COCCN1c1nc(-c2cnn(C)c2)nc2nc(-c3cccc(CO)c3)ccc12 [Example 19v] showed an IC50 of under 1000 nM.
Molecule Cc1nn(C)c(C)c1-c1nc(N2CCOC[C@@H]2C)c2ccc(-c3cccc(CO)c3)nc2n1 [Example 19w] has an IC50 of under 1000 nM.
